This note sets out measurements from patent US6194437A (Warner-Lambert Company, priority 1999, dated 2001).

Each structure is given as a SMILES string.

The target in assay [1] is T1, cloned human NMB-preferring receptors expressed in CHO cells (Homo sapiens, UniProt P28336).
T1 construct: functional calcium (Fura-2) and Cytosensor acidification assays
Description: Measurement of extracellular acidification (CYTOSENSOR) in CHO-NMB cells. The note with it: NMB-preferring receptor (BB1), antagonist 30 minutes prior to agonist, 37° C. The format is cell-based. From the text:
(§1) The compounds of the invention have been tested in in vitro functional assays using cloned human NMB-preferring receptors expressed in CHO cells.
(§2) Protocols for functional assays:
2. Measurement of extracellular acidification (CYTOSENSOR)
This acidification rate is detected as a change in potential across a silicon light addressable sensor, during periods of media cessation (McConnell, et al., 1992).
CHO-NMB Cells seeded on polycarbonate microporous capsule cups were placed insensor chambers at 37° C. inside the microphysiometer, and maintained by a flow of nonbuffering Ham's F12 nutrient media (growth media without NaHCO3, pH 7.3-7.4) at approximately 120 μL/min. The flow was halted for 22 seconds at the end of each 2 minute repeated cycle, and the rate of acidification (μ volts/sec) measured for 15 seconds during that period.
Agonists were introduced sequentially every 28 to 30 minutes to the perfusing media, 20 seconds before flow-off periods, and removed after two rate measurements via the automatic valve-switch.
The effects of various antagonists were determined after continuous perfusion 30 minutes prior to, and throughout the application of agonists. All agents were applied at the working pH of the media.

Assay [2] deals with T2, cloned human GRP-preferring receptor (BB2) (Homo sapiens, UniProt P30550).
T2 construct: expressed in transfected cells
T2 sequence (P30550 whole entry): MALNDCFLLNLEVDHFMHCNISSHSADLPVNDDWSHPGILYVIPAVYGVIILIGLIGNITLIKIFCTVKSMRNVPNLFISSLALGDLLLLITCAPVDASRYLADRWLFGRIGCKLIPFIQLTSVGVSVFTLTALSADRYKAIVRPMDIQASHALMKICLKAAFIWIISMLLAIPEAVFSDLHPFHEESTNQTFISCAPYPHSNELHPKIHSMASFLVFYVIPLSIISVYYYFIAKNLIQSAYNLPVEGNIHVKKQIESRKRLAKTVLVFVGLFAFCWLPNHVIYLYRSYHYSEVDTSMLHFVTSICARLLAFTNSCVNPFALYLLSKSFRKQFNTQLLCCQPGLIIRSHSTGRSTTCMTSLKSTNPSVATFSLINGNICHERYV
Description: Receptor binding assay, cloned human GRP-preferring receptor (BB2), [125I][Tyr4]bombesin displacement. The note with it: CHO-K1 cell membranes, 90 minutes incubation. Here is the method:
The compounds of the invention have been evaluated in receptor binding assays which measure the affinity of the novel compounds in a cloned human NMB-preferring receptor (BB1) assay and in a cloned human GRP-preferring receptor (BB2) assay. Protocol for Binding Assays […] For binding experiments, cells were harvested by trypsinization, and stored frozen at -70° C. in Ham's F12 culture medium containing 5% DMSO until required. On the day of use, cells were thawed rapidly, diluted with an excess of culture medium, and centrifuged for 5 minutes at 2000 g. Cells were resuspended in 50 mM Tris-HCl assay buffer (pH 7.4 at 21° C., containing 0.02% BSA, 40 μg/ml bacitracin, 2 μg/mL chymostatin, 4 μg/mL leupeptin, and 2 μM phosphoramidon), counted, and polytronned (setting 5, 10 sec) before centrifuging for 10 minutes at 28,000 g. The final pellet was resuspended in assay buffer to a final cell concentration of 1.5×10^5 /mL. […] Radioactivity bound was determined using a gamma counter.

Assay [3] concerns the target T1, cloned human NMB-preferring receptors expressed in CHO cells. Description: Measurement of intracellular calcium levels ([Ca2+]i mobilization, Fura-2) in CHO cells. In kind it is cell-based. The settings on record: NMB-preferring receptor (BB1), read-out: [Ca2+]i Mobilization KE. Here is the method:
as §1, §2
1. Measurement of intracellular calcium levels
Culture of Chinese hamster ovary cells
Chinese hamster ovary cells were routinely grown as monolayers in Ham's F12 nutrient mixture supplemented with 10% FBS and […], and maintained at 37° C. under 5% CO2. Cells were passaged every 3 to 4 days. At each passaging, cells were seeded at a density of 3 to 6 million per 175 cm^2 flask. […]
Plated cells were incubated with 2 μM Fura-2-AM for between 45 and 120 minutes at 25° C. to 29° C. […] Single coverslips were then mounted in a chamber on top of an inverted fluorescence microscope and perfused with a Krebs-Hepes assay buffer (composition in mM: NaCl 118, KCl 4.7, MgSO4 1.2, CaCl^2 1.2, KH^2 PO^4 1.2, Hepes 10, glucose 11, pH 7.2 at 37° C.) {332}.
Measurements of [Ca^2+ ]^i in individual cells were made from the fluorescence ratio (excitations […] for Fura-2) using a specially designed filter wheel assembly, CCD camera or photomuliplier tubes, and specially designed suites of software (MAGICAL OR phocal, Applied Imaging, Sunderland, UK) which samples emission following excitation at different wavelengths at regular intervals. […]

Assay [4] has as its target T3, cloned human NMB-preferring receptor (BB1) (Homo sapiens, UniProt P28336).
T3 construct: expressed in transfected cells
Description: Receptor binding assay, cloned human NMB-preferring receptor (BB1), [125I][Tyr4]bombesin displacement. The settings on record: CHO-K1 cell membranes, 60 minutes incubation. Here is the method:
For binding experiments, cells were harvested by trypsinization, and stored frozen at -70° C. in Ham's F12 culture medium containing 5% DMSO until required. On the day of use, cells were thawed rapidly, diluted with an excess of culture medium, and centrifuged for 5 minutes at 2000 g. Cells were resuspended in 50 mM Tris-HCl assay buffer (pH 7.4 at 21° C., containing 0.02% BSA, 40 μg/ml bacitracin, 2 μg/mL chymostatin, 4 μg/mL leupeptin, and 2 μM phosphoramidon), counted, and polytronned (setting 5, 10 sec) before centrifuging for 10 minutes at 28,000 g. The final pellet was resuspended in assay buffer to a final cell concentration of 1.5×10^5 /mL. […] Radioactivity bound was determined using a gamma counter.

T1 sequence (P28336 whole entry): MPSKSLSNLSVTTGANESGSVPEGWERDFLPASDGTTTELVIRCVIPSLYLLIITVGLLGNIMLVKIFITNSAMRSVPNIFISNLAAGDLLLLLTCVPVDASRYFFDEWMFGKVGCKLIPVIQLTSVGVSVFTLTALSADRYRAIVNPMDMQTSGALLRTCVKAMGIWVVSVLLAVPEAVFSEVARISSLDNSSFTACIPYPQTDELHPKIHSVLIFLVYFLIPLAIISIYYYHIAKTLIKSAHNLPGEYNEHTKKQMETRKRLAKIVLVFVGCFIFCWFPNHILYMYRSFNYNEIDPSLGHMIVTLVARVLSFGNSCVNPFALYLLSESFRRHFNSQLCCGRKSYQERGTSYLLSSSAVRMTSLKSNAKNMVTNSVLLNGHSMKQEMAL
T3 sequence (P28336 whole entry): as above

What is called Ki is the equilibrium dissociation constant of an inhibitor or competing ligand from its target. Regarding `CC(C)c1cccc(C(C)C)c1NC(=O)N[C@@](C)(Cc1c[nH]c2ccccc12)C(=O)NCC1(c2ccccn2)CCCCC1` [Example 1, 2-[3-(2,6-Diisopropyl-phenyl)-ureido]-3-(1H-indol-3-yl)-2-methyl-N-(1-pyridin-2-yl-cyclohexylmethyl)-propionamide], the “Acidification Response appKB” value in assay [1] turned out to be 7.6. Moreover, the Ki in assay [2] is > 10000 nM; in assay [4], 5 nM. Further, in assay [3], the Kb was determined as 18 nM.
The corresponding values for `C[C@@](Cc1c[nH]c2ccccc12)(NC(=O)Nc1ccc([N+](=O)[O-])cc1)C(=O)NCC1(c2ccccn2)CCCCC1` [Example 14] are 1.0, 19 nM, 0.15 nM and 1.2 nM.
